The results in this text go back to publication PMC9963121, “Development of Combretastatin A-4 Analogues as Potential Anticancer Agents with Improved Aqueous Solubility” (Molecules, 2023).

The nature of data set [1]: Aqueous solubility in 0.01 M PBS, high throughput UV method. The conditions noted are these: aqueous phosphate buffer, aqueous buffer; sodium phosphate buffer 0.01 M, pH 7.4, 22 ± 2 °C; mean ± SD. Format: physicochemical. The text has this: (§1) Initially, we designed and synthesised seven compounds—9a and 12a1–12a6—and evaluated the anticancer activity and aqueous solubility. We evaluated the cytotoxic effects of these stilbene nitrile analogues against a panel of four human cancer cell lines (HCT-116, BEL-7402, MCF-7 and AGS) and two human non-cancerous normal cell lines (L-02 and MCF-10A), using CA-4 as a control. The compounds were screened for aqueous solubility in 0.01 M PBS using a high throughput UV method. […] It is possible that the size of the nitrogen heterocycle had little effect on the activity of these compounds. […] The aqueous solubility of all the compounds 12a1–12a6 was higher than that of 9a, particularly that of 12a1 and 12a2 containing piperazine rings. […] Of the six compounds with improved aqueous solubility, 12a1 had the best activity.
The aqueous solubility was determined as a previously reported procedure. Put simply, a certain amount of powdered compound was placed in a 2 mL centrifuge tube and mixed with an appropriate volume of aqueous phosphate buffer (10 mM, pH 7.4) to make the whole system supersaturated. The mixtures were sonicated (KQ5200DE numerical control ultrasonic cleaner, Kunshan Ultrasonic Instrument Co., Ltd., SuZhou, China) for 20 min. After sonication, the mixture was allowed to equilibrate at RT (22 ± 2 °C) for 1.5 h with vortex shaking (1200 rpm). Then centrifuged at 3000 rpm for 15 min (1-14k, sigma, Darmstadt, Germany), the supernatant was filtered with a 0.22 µM filter membrane. And then, take 150 µL of filtrate and add it to 96-well UV plate with triplicate. Draw 150 μL of blank solution was added into plate as blank control. The 96-well UV plate prepared above was read on a Synergy HTX Multifunctional Microplate Reader (BioTek, Vermont, USA) at 294 nm. The absorbance of the sample was corrected according to the UV response of the sample and blank solution, and the corrected UV response values were used for solubility calculations by bringing into the standard curve of the compound. […]
1.5. Solubility Assessment
The aqueous solubility was determined as previously reported using the high throughput solubility screens procedure published by Bruno Bard et al [9. 10]. Put simply, a certain amount of powdered compound was placed in a 2 ml centrifuge tube and mixed with an appropriate volume of aqueous phosphate buffer (0.01 M, pH 7.4) to make the whole system supersaturated. The mixtures were sonicated (KQ5200DE numerical control ultrasonic cleaner, Kunshan Ultrasonic Instrument Co., Ltd., China) for 20 min. After sonication, the mixture was allowed to equilibrate at room temperature (22 ± 2°C) for 1.5 h with vortex shaking (1200 rpm). Then the centrifuge tube was put into the centrifuge (1-14k, sigma, Germany), centrifuged with 3000 rpm for 15 minutes, 0.22 µM filter membrane filtration supernatant, then take 150 µl filtrate and add it to 96-well UV plate, with three well for each compound. Draw 150 μL blank solution were added into 96 well-plate as blank control. The 96-well UV […]
plate prepared above was read on a SynergyHTX Multifunctional microplate reader (BioTek, USA) at 338 nm (compounds 12a-12d and 15-20) or 370 nm (compounds 9a-d). The absorbance of the sample was corrected according to the UV response of the sample and blank solution, and the corrected UV responses value were used for solubility calculations by bring into the standard curve of the compound. […]

The subject of data set [2] is BEL-7402 liver cancer cell. Kind of data set: MTT cell growth inhibition assay, BEL-7402 liver cancer cells. The conditions noted are these: Homo sapiens, mean ± SD of three experiments, read-out: IC50 BEL-7402 Hepatoma Cells. The data set is classed as cell-based.
From the text: as §1
All human cell lines were used in this study. AGS gastric cancer cell, BEL-7402 liver cancer cell, HCT-116 colorectal cancer cell, L-02 normal liver cell, MCF-7 breast cancer cell, and MCF-10A normal breast cell were initially purchased from American Type Culture Collection (ATCC, Manassas, VA, USA). RPMI-1640 media, DMEM and FBS, were provided by Gibco Company. The cells were maintained in DMEM or RPMI-1640, supplemented with 10% FBS, 100 IU/mL penicillin and […] streptomycin, and at 37 °C in a humidified atmosphere containing 5% CO2.
The experiment was carried out according to the method of reference.

With `COc1cc(/C(C#N)=C/c2ccc(NC(=O)CN3CCN(C)CC3)cc2)cc(OC)c1OC` [12a1], in data set [1], the solubility (thermodynamic) at 1.5 h amounted to 18.2 ± 0.619 mg/mL. For the same compound, in data set [2], the IC50 stood at 6.36 ± 0.61 µM.
